Assay in all cases: DTP human tumour cell line panel, 48 h
The test system of assay [1] is HS 578T breast.
Assay [2] concerns EKVX NSCLC.
For assay [3], the system named is NCI/ADR-RES ovarian.
Assay [4] has as its system UACC-62 melanoma.
In assay [5] the test system is NCI-H23 lung.
For assay [6], the system named is KM12 colon.
Assay [7] deals with RXF 393 renal.
Assay [8] deals with SR leukemia.
The subject of assay [9] is NCI-H226 lung.
The subject of assay [10] is CAKI-1 renal.

SMILES strings stand for the structures.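 48-hour exposure; five concentrations; linearly interpolated endpoints. GI50 is the concentration that inhibits growth by half. Definition used: TGI = concentration required for complete inhibition of growth.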

These results are taken from PubChem BioAssay (NCI).

A word on the TGI: it is the concentration giving total growth inhibition. High values mean less potent growth arrest, low ones more potent growth arrest. Take `CNc1nc(N)nc(Nc2ccc(I)cc2)c1N=O`: the TGI in [1], in assay [2], in assay [3], in assay [4], in assay [5] and in [6] was > 100 µM in each case. In addition, the TGI in assay [7] and in assay [8] was > 100 µM each time.
For orientation: GI50 means the concentration giving 50% growth inhibition. In the case of `NC(N)=Nc1nc2ccccc2o1`, the GI50 in assay [9], in [10], in assay [2], in [3], in [4] and in assay [5] was > 100 µM each time. Besides, the GI50 in assay [6], in assay [7] and in [8] was > 100 µM each time. Also, the TGI in [9], in [10], in [2], in [3], in [4] and in [5] was > 100 µM throughout. For the same compound, the TGI in [6], in [7] and in assay [8] was > 100 µM in each case.
For `CCOc1ccc(OCC(=O)O)c2c1CCCC2=O`, the TGI in [9], in assay [2], in assay [4], in assay [5], in [6] and in [7] was > 100 µM throughout. Also, the TGI in assay [8] is > 100 µM.
For `CCOC(=O)C(Br)=C1OC(=O)c2ccccc2-c2ccccc21` (mixture of isomers), the concentration for total growth inhibition (TGI) in assay [9] is 60.4 µM; in [10] it was 32.7 µM; in assay [2], > 100 µM; in assay [4], 29.5 µM; in assay [5], 48 µM; in assay [6] it was 34.9 µM. In [8], the TGI turned out to be 47.2 µM.
As for `CCOc1ccc(NC(=O)CC2SC(=Nc3ccc(C)cc3C)NC2=O)cc1` (stereo not given), the TGI in assay [9], in assay [10], in [2], in assay [4], in assay [5] and in assay [7] was > 100 µM each time. Besides, in assay [8], the TGI is > 100 µM.
In the case of `COc1cccc2c1O/C(=C\c1ccc([N+](=O)[O-])s1)C2=O`, the GI50 in assay [9] is > 80.6 µM; in assay [1], 2.99 µM; in [10] it was > 100 µM; in [3] it was 3.92 µM; in assay [4], 1.36 µM; in [5], 3.15 µM. For the same compound, the GI50 was 2.6 µM in assay [7] and 0.279 µM in [8]. Moreover, the TGI in assay [9] was > 100 µM; in assay [1], > 32.1 µM; in assay [10], > 100 µM; in assay [3], > 100 µM; in [4] it was 3.23 µM; in assay [5], > 100 µM. The TGI in [7] was > 25.3 µM; in [8], 2.93 µM.
On to `CC(C)C1CN(C(=O)OCc2ccccc2)C2N1C(=O)C2(C)OCc1ccccc1` (stereo not given), for which the total growth inhibition concentration (TGI) in assay [9] was 81 µM; in [2] it was > 100 µM; in assay [4], > 100 µM; in assay [5], > 100 µM; in [7], > 100 µM; in assay [8] it was 98 µM.
As for `CCC(C)(C)n1c(C)nc2c1C(=O)c1ccccc1C2=O`, the TGI in assay [9] was > 100 µM; in [2], > 100 µM; in assay [4], 36.1 µM; in assay [5] it was 60.4 µM; in assay [6] it was > 100 µM; in assay [7] it was 59.4 µM. The compound further registered a total growth inhibition concentration (TGI) in assay [8] of 42.7 µM.
With `COC(=O)c1c(C)cc(OC)c(C/C=C(\C)CCCc2coc(C=C(C)C)c2)c1OC`, the TGI is 79.7 µM in assay [1]; > 100 µM in assay [10]; > 100 µM in assay [2]; > 100 µM in [3]; > 100 µM in assay [4]; > 100 µM in assay [5]. The total growth inhibition concentration (TGI) in [6] and in assay [8] was > 100 µM throughout.
Regarding `Cc1nc2c(Br)cc(Br)cc2c(=O)n1-c1nnc(-c2cccc(Cl)c2Cl)c(N)n1`, the GI50 in [9] is 21.3 µM; in [1] it was 16 µM; in assay [10], 28.5 µM; in assay [2], 22.1 µM; in assay [3], 13.6 µM; in assay [4] it was 13.4 µM. Further, the GI50 in assay [5] was 23.4 µM; in [6], 11.4 µM; in assay [7], 26.2 µM. Also, the TGI in assay [9] was 59.6 µM; in assay [1], 47.2 µM; in assay [10], 80.6 µM; in [2] it was > 100 µM; in assay [3], 37.5 µM; in assay [4] it was 37.3 µM. Also, the TGI was 65.5 µM in assay [5], 40.3 µM in assay [6] and > 100 µM in assay [7].
Consider `COCOCCC#CCO`, for which the TGI in assay [2], in [4], in assay [5], in assay [6], in [7] and in assay [8] was > 100 µM each time.
As for `Oc1oc(C(=C2N=c3ccccc3=N2)c2ccc(Cl)cc2)c(O)c1-c1ccc(Cl)cc1`, the TGI was determined as 6.81 µM in [9]; 7.14 µM in assay [10]; 7.41 µM in assay [2]; 15.2 µM in [4]; 4.34 µM in assay [5]; 15.9 µM in [6]. Moreover, the TGI is 6.8 µM in [7] and 12.6 µM in [8].
In the case of `CCCCCCCCSC1=C(Cl)C(=O)C(OC)=C(OC)C1=O`, the TGI is 34.6 µM in [9]; 66.6 µM in assay [1]; 34.7 µM in [10]; 24.9 µM in assay [2]; > 100 µM in assay [3]; 24 µM in [4]. The results for the TGI in assay [5], in assay [6] and in [7] were 31.5 µM, 37.7 µM and 30.3 µM, respectively.
